Values quoted from earlier work, collected in patent publication US20110034521A1, “COMPOUNDS AND METHODS FOR TREATING ZINC MATRIX METALLOPROTEASE DEPENDENT DISEASES” (priority 2007, published 2011).

Key:
[1] = Wojtowwicz-Praga et al. 1997
[2] = Sparano et al. 2004

| water solubility [1] | Structure (SMILES) | toxicity [2] |
| --- | --- | --- |
| poor water solubility | CNC(=O)[C@H](Cc1ccccc1)NC(=O)[C@H](CC(C)C)[C@H](CSc1cccs1)C(=O)NO [Batismastat] |  |
|  | CNC(=O)[C@@H](NC(=O)[C@H](CC(C)C)[C@H](O)C(=O)NO)C(C)(C)C [Marimastat] | musculoskeletal toxicity |
